Reference: patent US11975072B2, “Pyropheophorbide conjugate and use thereof in the treatment of cancer and as a fluorescent marker” (INSERM (INSTITUT NATIONAL DE LA SANTÉ ET DE LA RECHERCHE …, priority 2017, dated 2024)

Key:
[1] = in ethanol; cited from earlier work
[2] = Photophysical properties (absorption, fluorescence, singlet oxygen production, lifetimes) in ethanol; type: physicochemical; settings: for ϕF fluorescence quantum yield: ±0.02, reference tetraphenylporphyrin in toluene; for ϕΔ quantum yield (singlet oxygen production): ±0.05, reference Rose Bengal in ethanol; for τF fluorescence lifetime: ±0.1 ns; for τΔ singlet oxygen lifetime: ±1 μs
Experimental: The absorption spectra were measured with a UV-3600 double beam UV-visible spectrophotometer (Shimadzu, Marne La Vallée, France). The fluorescence spectra were measured with a Fluorolog FL3-222 spectrofluorimeter (Horiba Jobin Yvon, Longjumeau, France) equipped with a 450 W xenon arc lamp, with a thermostated (25° C.) cuvette holder compartment, with an R928 UV-visible photomultiplier (Hamamatsu, Japan) and with a liquid nitrogen-cooled InGaAs infrared detector (DSS-16A020L Electro-Optical System Inc, Phoenixville, PA, USA). The excitation beam is diffracted by a SPEX double-grating monochromator (1200 lines/mm blazed at 330 nm). The fluorescence was measured by the UV-visible detector via the SPEX double-grating emission monochromator (1200 lines/mm blazed at 500 nm). The production of singlet oxygen was measured by the infrared detector via the SPEX double-grating emission monochromator (600 lines/mm blazed at 1 μm) and a high-pass filter at 780 nm. All the spectra were measured using 4-face quartz cuvettes. All the emission spectra (singlet-oxygen fluorescence and luminescence) were related back to the same absorbance (less than 0.2) with the lamp and photomultiplier corrections.
The fluorescence quantum yield was determined by equation (1):
[formula] where Φf and Φfo, If and Ifo, OD and ODo, n and no, are the quantum yields, the fluorescence intensities, the optical densities, and the refractive indices of the sample and of the reference respectively.
The reference used for the calculation of the fluorescence quantum yield is tetraphenylporphyrin in toluene with a φfo of 0.11.
The quantum yield for singlet oxygen production is determined by equation (2):
[formula] where ΦΔ and ΦΔo, I and Io, OD and ODo are the quantum yields for singlet oxygen production, the singlet oxygen production intensities and the optical densities of the sample and of the reference respectively.
The reference used for the calculation of the quantum yield for singlet oxygen production is Rose Bengal in ethanol with a φΔo of 0.68.
The fluorescence lifetime experiments were carried out using, for the excitation, a pulsed laser diode emitting at 407 nm (LDH-P-C-400M, FWHM<70 ps, 1 MHz) coupled to a PDL 800-D pulse generator (PicoQuant GmbH, Berlin, Germany) and, for the detection, an SPCM-AQR-15 avalanche photodiode (EG & G, Vaudreuil, Canada) coupled to a high-pass filter at 650 nm.
The acquisition was carried out using a PicoHarp 300 module linked to a PHR-800 4-channel router (PicoQuant GmbH, Berlin, Germany). The fluorescence declines were recorded using the single photon counting method (Time Correlated Single Photon Counting TCSPC). The data were collected until 1000 accumulated counts in a channel were obtained, then analyzed using the TCSPC Fluofit software (PicoQuant GmbH, Berlin, Germany) based on an iterative reconvolution using a Levensberg-Marquandt algorithm which allows multiexponential declines to be obtained.
The singlet oxygen lifetime measurements were carried out with a Tempro-01 spectrophotometer (Horiba Jobin Yvon, Longjumeau, France) composed of a SpectraLED-415 pulsed excitation diode emitting at 415 nm, of a cuvette holder compartment, of an emission monochromator of Seya-Namioka type (600-2000 nm) and of an H10330-45 thermoelectrically regulated near infrared photomultiplier tube (Hamamatsu, Japan). The assembly is controlled by the FluoroHub-B counting module and the DataStation and DAS6 software (Horiba Jobin Yvon).
The emission spectra and the phosphorescence lifetime measurements were carried out with a Fluorolog FL3-22 spectrofluorimeter (Horiba Jobin Yvon, Longjumeau, France) equipped with a 450 W continuous xenon lamp, with a xenon flash lamp, with a thermostated (25° C.) cuvette holder compartment and with an R928 UV-visible photomultiplier (Hamamatsu, Japan). The assembly is controlled by the FluoroHub-B counting module. […]

Row | εQI (molar extinction coefficient, QI band) [2] | εsoret band (molar extinction coefficient) [2] | λQI (QI band absorption peak) [2] | ϕF fluorescence quantum yield [2] | ϕΔ quantum yield (singlet oxygen production) [2] | τF fluorescence lifetime [2] | τΔ singlet oxygen lifetime [2] | Molecule | φΔo quantum yield for singlet oxygen production of the reference [1]
1 | – | – | – | – | – | – | – | O=C([O-])c1c(Cl)c(Cl)c(Cl)c(Cl)c1-c1c2cc(I)c(=O)c(I)c-2oc2c(I)c([O-])c(I)cc12.[Na+].[Na+] [Rose Bengal] | 0.68
2 | 33 265 L · mol^−1 · cm^−1 | 76 326 L · mol^−1 · cm^−1 | 668 nm | 0.34 | 0.52 | 6.7 ns | 13 μs | pyropheophorbide-a [Pyro(a)-COOH] | –
3 | 32 537 L · mol^−1 · cm^−1 | 69 663 L · mol^−1 · cm^−1 | 667 nm | 0.44 | 0.52 | 5.7 ns | 12 μs | pheophorbide-a [Pheo(a)-COOH] | –
